Measurements taken from patent publication US6083981A, “Sulfonamide substituted aspartic acid interleukin-1β converting enzyme inhibitors” (Warner-Lambert Company, priority 1999, dated 2000).

Tests used:
[1] = target: T1, ICE (Homo sapiens, UniProt P29466); assay: ICE inhibition, fluorometric Ki (Ac-Tyr-Val-Ala-Asp-AMC substrate); type: biochemical; conditions: 0.24 nM ICE, 15 μM Ac-Tyr-Val-Ala-Asp-AMC, reversible competitive model
T1 sequence (P29466 120-297 limits assumed): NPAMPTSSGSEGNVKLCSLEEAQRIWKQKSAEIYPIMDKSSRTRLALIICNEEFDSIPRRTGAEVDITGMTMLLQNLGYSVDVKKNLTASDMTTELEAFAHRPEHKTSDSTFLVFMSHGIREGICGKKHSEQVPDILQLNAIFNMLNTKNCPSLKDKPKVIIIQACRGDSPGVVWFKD
T1 sequence (P29466 317-404 limits assumed): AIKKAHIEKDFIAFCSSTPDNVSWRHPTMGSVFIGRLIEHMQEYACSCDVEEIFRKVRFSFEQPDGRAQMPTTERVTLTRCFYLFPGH
Experimental: Substrate hydrolysis is monitored for 300 seconds by observing the fluorescence of released AMC using excitation at 380 nm and emission at 460 nm. Mean rates of substrate hydrolysis are evaluated by linear-regression analysis of the fluorescence vs time traces.

[2] = target: T2, Ich-2 (Caspase-4) (Homo sapiens, UniProt P49662); assay: Ich-2 (Caspase-4) Colorimetric Dose-Response (IC50) Assay; type: biochemical; conditions: 64 nM enzyme, 60 μM Ac-Leu-Glu-Val-Asp-pNA
T2 sequence (P49662 81-270 limits assumed): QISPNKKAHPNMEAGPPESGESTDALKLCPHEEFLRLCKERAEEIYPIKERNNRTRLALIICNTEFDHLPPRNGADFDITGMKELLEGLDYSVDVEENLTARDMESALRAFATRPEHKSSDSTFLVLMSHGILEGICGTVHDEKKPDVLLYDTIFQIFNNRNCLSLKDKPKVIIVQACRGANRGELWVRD
T2 sequence (P49662 290-377 limits assumed): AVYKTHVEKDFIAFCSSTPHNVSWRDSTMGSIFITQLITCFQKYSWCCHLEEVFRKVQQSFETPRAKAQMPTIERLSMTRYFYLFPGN
Experimental: (§1) ICE enzyme is diluted to approximately 24 nM in HGE buffer (100 mM Hepes pH 7.5, 0.5 mM EDTA, 20% glycerol, 0.1% Bovine Serum Albumin (BSA), and activated by adding dithiothreitol (DTT) to a final concentration of 5 mM. The activated enzyme is then aliquoted into wells containing inhibitor or vehicle, and the plate is preincubated for 60 minutes at ambient temperature. Substrate (Ac--Tyr--Val--Ala--Asp--pNA) is added to each well to a final concentration of 50 μM, and plates are placed in the microtitre plate-reader thermostated to 25° C. Beginning 5 minutes after addition of substrate, absorbance (405 nm) of wells is monitored for 1 hour, and activity is calculated as the mean rate of change in absorbance during this interval.
Inhibition of Ich-2 enzyme is assayed as described above for ICE, except that enzyme is used at 64 nM, and 60 μM of the Ich-2-specific substrate Ac--Leu--Glu--Val--Asp--pNA is used instead of the ICE substrate Ac--Tyr--Val--Ala--Asp--pNA.

[3] = system: human peripheral blood mononuclear cells (PBMCs); assay: PBMC viability (MTT), compound toxicity; type: cell-based
From the text: (§2) Further evidence that compounds of Formula I, II, and III are inhibitors of ICE is provided by their ability to inhibit IL-1β production in human peripheral blood mononuclear cells (PBMCs) as described herein. PBMCs are isolated from heparinized blood by centrifugation over a ficoll cushion, then washed three times with phosphate-buffered saline. PBMCs are suspended in a medium containing RPMI 1640 with glutamine, penicillin, streptomycin, and 2% human AB serum, then plated at 10^6 cells per well in 96 well flat bottom plates. PBMCs are stimulated overnight with 10 ng/mL of lipopolysaccharide (LPS, E. Coli strain 0111:B4; Calbiochem) in the presence or absence of a compound of Formula I. Medium is harvested and the level of mature IL-1β was determined using an ELISA kit from R & D Systems. Compound inhibition is assessed by determining the concentration of agent which reduces IL-1β levels by 50%. Cells were cultured for an additional four hours in the presence of 3-(4,5-dimethylthiazol-2-yl)-2,5-diphenyltetrazolium bromide (MTT) to determine viability. Compound toxicity can, therefore, be assessed by determining the concentration of agent which kills 50% of the cells (IC50).

[4] = system: IL-1β production in human peripheral blood mononuclear cells (PBMCs); assay: PBMC Cellular Assay, inhibition of LPS-stimulated IL-1β production; type: cell-based; conditions: mature IL-1β by ELISA, 10 ng/mL LPS overnight, 2% human AB serum
From the text: as §2

[5] = target: T1, ICE; assay: ICE Colorimetric Dose-Response (IC50) Assay; type: biochemical; conditions: 24 nM ICE, 60 min preincubation, 50 μM Ac-Tyr-Val-Ala-Asp-pNA, pH 7.5, 25° C
Experimental: Aliquots of each dilution are transferred to a microtitre plate in triplicate.
as §1

[6] = PBMC viability (MTT), compound toxicity; type: cell-based; conditions: human, MTT viability, additional four hours, concentration which kills 50% of the cells, read-out: PBMC TC50
From the text: as §2

Row | Compound | Ki [1] [µM] | IC50 [2] [µM] | CC50 [3] [µM] | IC50 [4] [µM] | IC50 [5] [µM] | CC50 [6] [µM] | IC50 ([4]; PBMC) [µM]
1 | 3-(2-Sec-Butoxy-Benzenesulfonylamino)-4-Oxo-Butyric Acid [Example 27] | 3.9 | 118 | > 100 | > 100 | 35 | – | –
2 | CCc1ccccc1Oc1ccccc1S(=O)(=O)NC(C=O)CC(=O)O (stereo not shown) [Example 18, 3-[2-(2-Ethyl-Phenoxy)-Benzenesulfonylamino]-4-Oxo-Butyric Acid] | 2 | 87 | – | – | 14 | > 100 | 80
3 | CCC(C)c1ccc(Oc2ccccc2S(=O)(=O)NC(C=O)CC(=O)O)cc1 (stereo not shown) [Example 19, 3-[2-(4-Sec-Butyl-Phenoxy)-Benzenesulfonylamino]-4-Oxo-Butyric Acid] | 0.5 | 4 | – | – | 2.2 | > 100 | 23
4 | O=CC(CC(=O)O)NS(=O)(=O)c1ccccc1Oc1ccc(-c2ccccc2)cc1 (stereo not shown) [Example 20, 3-[2-(Biphenyl-4-Yloxy)-Benzenesulfonylamino]-4-Oxo-Butyric Acid] | 0.3 | 17 | – | – | 4.4 | > 100 | 40
5 | CCCCC(C)c1ccc(Oc2ccccc2S(=O)(=O)NC(C=O)CC(=O)O)cc1 (stereo not shown) [Example 21, 3-{2-[4-(1-Methyl-Pentyl)-Phenoxy]-Benzenesulfonylamino}-4-Oxo-Butyric Acid] | 0.6 | 31 | – | – | 6.1 | 70 | 33
6 | O=CC(CC(=O)O)NS(=O)(=O)c1ccccc1OCc1ccccc1 (stereo not shown) [Example 23, 3-(2-Benzyloxy-Benzenesulfonylamino)-4-Oxo-Butyric Acid] | 0.8 | 97 | – | – | 11 | > 100 | 60
7 | Cc1cccc(Oc2ccccc2S(=O)(=O)NC(C=O)CC(=O)O)c1C (stereo not shown) [Example 24, 3-[2-(2,3-Dimethyl-Phenoxy)-Benzenesulfonylamino]-4-Oxo-Butyric Acid] | 1 | 122 | – | – | 13 | > 100 | 73
8 | CCC(C)c1ccc(Oc2ccccc2S(=O)(=O)NC(C=O)CC(=O)O)cc1C (stereo not shown) [Example 28, 3-[2-(4-Sec-Butyl-3-Methyl-Phenoxy)-Benzenesulfonylamino]-4-Oxo-Butyric Acid] | 0.1 | 4.6 | – | – | 1 | > 100 | 18
9 | CCC(CC)COc1ccccc1S(=O)(=O)NC(C=O)CC(=O)O (stereo not shown) [Example 29] | 0.3 | 215 | – | – | 8.6 | > 100 | 75
10 | O=CC(CC(=O)O)NS(=O)(=O)c1ccccc1OCCc1cccc2ccccc12 (stereo not shown) [Example 31] | 0.062 | 2.3 | – | – | 0.4 | > 100 | 8
11 | Cc1cccc(-c2ccccc2S(=O)(=O)NC(C=O)CC(=O)O)c1 (stereo not shown) [Example 35, 3-(3'-Methyl-Biphenyl-2-Sulfonylamino)-4-Oxo-Butyric Acid] | 31 | 341 | – | – | 37 | > 100 | > 100
12 | O=CC(CC(=O)O)NS(=O)(=O)c1ccccc1Oc1ccc2ccccc2c1 (stereo not shown) [Example 36, 3-[2-(Naphthalen-2-Yloxy)-Benzenesulfonylamino]-4-Oxo-Butyric Acid] | 0.13 | 28 | – | – | 3.5 | > 100 | 50
13 | Cc1cccc(S(=O)(=O)NC(C=O)CC(=O)O)c1-c1ccccc1 (stereo not shown) [Example 37, 3-(6-Methyl-Biphenyl-2-Sulfonylamino)-4-Oxo-Butyric Acid] | 1.9 | 151 | – | – | 34 | > 100 | > 100
14 | Cc1cccc(S(=O)(=O)NC(C=O)CC(=O)O)c1Oc1ccccc1 (stereo not shown) [Example 38, 3-(3-Methyl-2-Phenoxy-Benzenesulfonylamino)-4-Oxo-Butyric Acid] | 0.67 | 76 | – | – | 11.2 | > 100 | 85
15 | O=CC(CC(=O)O)NS(=O)(=O)c1ccccc1Sc1ccccc1 (stereo not shown) [Example 39, 4-Oxo-3-[2-Phenylthio-Benzenesulfonylamino]-Butyric Acid] | 1.1 | 25 | – | – | 21 | > 100 | > 100
16 | O=CC(CC(=O)O)NS(=O)(=O)c1ccccc1Nc1ccccc1 (stereo not shown) [Example 40, 4-Oxo-3-[2-N-Phenyl-Benzenesulfonylamino]-Butyric Acid] | 10 | 370 | – | – | 44 | > 100 | 95
17 | Cc1cccc(S(=O)(=O)NC(C=O)CC(=O)O)c1Oc1ccc(C(C)C)cc1 (stereo not shown) [Example 41, 3-[2-(4-Isopropylphenoxy)-3-Methylbenzenesulfonylamino]-4-Oxo-Butyric Acid] | 1.5 | 9.2 | – | – | 12 | > 100 | 45
18 | Cc1ccccc1Oc1c(C)cccc1S(=O)(=O)NC(C=O)CC(=O)O (stereo not shown) [Example 42, 3-[2-(2-Methylphenoxy)-3-Methylbenzenesulfonylamino]-4-Oxo-Butyric Acid] | 0.3 | 57 | – | – | 1.1 | > 100 | 38
19 | Cc1ccc(Oc2ccccc2)c(S(=O)(=O)NC(C=O)CC(=O)O)c1 (stereo not shown) [Example 44, 3-(5-Methyl-2-Phenoxy-Benzenesulfonylamino)-4-Oxo-Butyric Acid] | 2.2 | 199 | – | – | 41 | > 100 | > 100
20 | Cc1ccc(S(=O)(=O)NC(C=O)CC(=O)O)c(Oc2ccccc2)c1 (stereo not shown) [Example 45, 3-(4-Methyl-2-Phenoxy-Benzenesulfonylamino)-4-Oxo-Butyric Acid] | 18 | 14 | – | – | 1.7 | > 100 | 70
